The values below come from PubChem BioAssay (NCI).

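Step 1: Grow cells in 96-well plates. Step 2: Expose to compound for 48 hours at 5 concentrations. Step 3: Interpolate endpoints linearly; if unreached, use highest concentration. GI50 marks 50% less growth. At the TGI there is no net growth.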 Where only a bound is given, the exact number is not on record here.

Common to all, as to experiment: NCI-60 cell line screen, 48 h
In experiment [1] the test system is OVCAR-3 ovarian.
Experiment [2] relates to K-562 leukemia.
Experiment [3] concerns OVCAR-4 ovarian.
Experiment [4] relates to HCC-2998 colon.
The test system of experiment [5] is NCI-H23 lung.
The subject of experiment [6] is M14 melanoma.
Experiment [7] relates to HCT-15 colon.
Experiment [8] has as its system KM12 colon.
Experiment [9] has as its system IGROV1 ovarian.
In experiment [10] the test system is RPMI-8226 leukemia.

As for `COc1cc(/C=C2\CC3C4CC=C5C[C@@H](OC(C)=O)CC[C@]5(C)C4CC[C@]3(C)C2=O)ccc1OCCN1CCCCC1` (stereo partly specified), the GI50 is 2.05 µM in [1]; 1.23 µM in experiment [2]; 15.1 µM in experiment [3]; 2.7 µM in experiment [4]; 10.4 µM in [5]; 2.09 µM in [6]. The GI50 was 1.29 µM in experiment [7] and 1.99 µM in experiment [8]. Also, the TGI was 5.29 µM in experiment [1]; 3.31 µM in experiment [2]; 49 µM in [3]; 6.59 µM in experiment [4]; 22.2 µM in experiment [5]; 3.79 µM in experiment [6]. Further, the TGI amounted to 3.25 µM in experiment [7] and 4.27 µM in experiment [8].
`Cc1c(C)n(CCCN2CCN(C)CC2)c2ccc(Oc3cccc(C(=O)N4CCN(CCc5ccc(F)cc5)CC4)c3)cc12`: the GI50 is 1.57 µM in [9]; 1.82 µM in experiment [1]; 1.84 µM in [3]; 1.81 µM in [4]; 1.85 µM in experiment [5]; 1.59 µM in [7]. The GI50 in experiment [8] was 1.93 µM. Besides, the TGI was found to be 3.16 µM in experiment [9]; 3.39 µM in [1]; 3.92 µM in [3]; 3.37 µM in [4]; 3.49 µM in experiment [5]; 3.09 µM in experiment [7]. In experiment [8], this molecule had a TGI of 3.64 µM.
Consider `O=C(CSc1nc2c(n1Nc1ccccc1)-c1ccccc1SC2)Nc1nc(-c2ccc(Cl)cc2)cs1`, for which the GI50 was 12.5 µM in [9]; 7.34 µM in experiment [1]; above 100 µM in experiment [10]; above 100 µM in experiment [4]; 6.48 µM in experiment [5]; above 100 µM in experiment [6]. In addition, the GI50 in [7] and in experiment [8] was above 100 µM each time. The TGI is 78.2 µM in experiment [9]; above 100 µM in experiment [1]; above 100 µM in experiment [10]; above 100 µM in experiment [4]; 97.1 µM in experiment [5]; above 100 µM in experiment [6]. The TGI in experiment [7] and in [8] was above 100 µM each time.
Regarding `C=CSCCC(N)C(=O)O` (stereo unspecified), the TGI in [9], in experiment [1], in experiment [2], in experiment [3], in experiment [4] and in experiment [5] was above 100 µM throughout. Further, the TGI in experiment [6], in experiment [7] and in experiment [8] was above 100 µM in each case.
Turning to `O=C(O)CCNCC(=O)O`, the TGI in experiment [9], in experiment [1], in [2], in experiment [10], in [5] and in experiment [6] was above 100 µM each time. For the same molecule, the TGI in [7] and in experiment [8] was above 100 µM throughout.
On to `COC1CCC(OS(C)(=O)=O)C(CO)O1` (stereo unspecified), for which the TGI in experiment [9], in [1], in experiment [2], in experiment [4], in experiment [5] and in experiment [6] was above 100 µM throughout. Further, the TGI in experiment [7] and in experiment [8] was above 100 µM each time.
For the molecule `CCN(CC)CCCNc1nccc2c(C)c3c(cc12)c1cnccc1n3C`, the TGI turned out to be 2.75 µM in experiment [9]; 0.735 µM in [1]; 1.04 µM in [2]; 0.131 µM in [3]; 0.256 µM in experiment [4]; 1.18 µM in [5]. Further, the results for the TGI in [6] and in experiment [7] were 1.12 µM and 0.779 µM, respectively.
With `NNC(=O)C(=O)N/N=C(\CCCC(=O)Nc1ccc(Cl)cc1)CC(=O)c1ccc(F)cc1`, the TGI in [9], in experiment [1], in experiment [10], in experiment [3], in [4] and in [5] was above 100 µM throughout. The TGI in experiment [6] and in experiment [8] was above 100 µM in each case.
As for `CN(Cc1ccccc1)Cn1ccnc1`, the TGI is above 100 µM in [9]; above 100 µM in experiment [1]; above 100 µM in [2]; above 78.1 µM in [10]; above 100 µM in experiment [3]; above 100 µM in experiment [5]. The TGI in experiment [6] was 39.6 µM; in [7], above 100 µM; in experiment [8], above 100 µM.
For `Cc1cnc2n1S(=O)(=O)c1cc(C(=O)Nc3cccc4nsnc34)c(Cl)cc1S2`, the GI50 was 31.2 µM in [9]; 16.2 µM in experiment [1]; 40.8 µM in experiment [2]; 17.4 µM in experiment [10]; 27.8 µM in experiment [3]; 18 µM in experiment [5]. The figures for the GI50 in experiment [6], in experiment [7] and in experiment [8] were 52.2 µM, 38.1 µM and 17.6 µM, respectively. Further, the TGI was above 100 µM in experiment [9]; 30.2 µM in experiment [1]; above 100 µM in experiment [2]; 39.7 µM in experiment [10]; 75.4 µM in experiment [3]; 32.8 µM in [5]. Besides, the TGI in experiment [6] is above 100 µM; in experiment [7] it was above 100 µM; in experiment [8], 33.4 µM.
Turning to `O=C(NCCCCN1CCOCC1)c1cc2ccccc2o1`, the GI50 in [9], in [1], in [2], in experiment [3], in experiment [4] and in experiment [5] was above 100 µM throughout. The GI50 in experiment [6], in experiment [7] and in [8] was above 100 µM in each case. Besides, the TGI in [9], in experiment [1], in experiment [2], in experiment [3], in experiment [4] and in experiment [5] was above 100 µM throughout. Besides, the TGI in experiment [6], in experiment [7] and in experiment [8] was above 100 µM each time.
As to `O=C(O)CSc1n[nH]c(=O)[nH]c1=O`, the TGI in experiment [9], in experiment [1], in [2], in [10], in experiment [3] and in [5] was above 100 µM throughout. The TGI in experiment [6], in experiment [7] and in experiment [8] was above 100 µM each time.
